Measurements taken from patent US7109209B2, “Pyrazolopyridines, process for their preparation and use as therapeutic compounds” (SmithKline Beecham Corporation, priority 2001, dated 2006).

System: HSV-1
Experiment: HSV-1 infection of Vero 76 cells, viral DNA detected by hybridization capture (chemiluminescence)
Format: cell-based
Conditions: Human alphaherpesvirus 1; HSV-1 in Vero 76 cells, MOI=0.001, 40-48 hours at 37° C.
Procedure: Vero 76 cells were maintained in MEM with Earle's salts, L-glutamine, 8% FBS (Hyclone, A-1111-L) and 100 units/mL Penicillin-100 μg/mL Streptomycin. For assay conditions, FBS was reduced to 2%. Cells are seeded into 96-well tissue culture plates at a density of 5×10^4 cells/well after being incubated for 45 min at 37° C. in the presence of HSV-1 or HSV-2 (MOI=0.001). Test compounds are added to the wells and the plates are incubated at 37° C. for 40-48 hours. Cell lysates are prepared as follows: media was removed and replaced with 150 VL/well 0.2 N NaOH with 1% Igepal CA 630 or NP-40. Plates were incubated up to 14 days at room temperature in a humidified chamber to prevent evaporation.
For the detection probe, a gel-purified, digoxigenin-labeled, 710-bp PCR fragment of the HSV UL-15 sequence was utilized. […]
Twenty-seven (27) μL of cell lysate was combined with 45 μL of hybridization solution (final concentration: 3M GuSCN, 50 mM EDTA, 100 μg/ml salmon sperm DNA, 5× Denhardt's solution, 0.25×APE, and 5 ng of the digoxigenin-labeled detection probe). […] The plates were incubated at room temperature for 30 minutes and chemiluminescence was measured in a Wallac Victor reader.

IC50 | SMILES
2000 nM | CCSc1cc(Cl)cc2c(-c3ccnc(NC4CCCC4)n3)c(-c3ccc(F)cc3)nn12 [Example 32, N-{4-[5-Chloro-7-(ethylsulfanyl)-2-(4-fluorophenyl)pyrazolo[1,5-α]pyridin-3-yl]-2-pyrimidinyl}-N-cyclopentylamine]
500 nM | CSc1cc(N2CCOCC2)cc2c(-c3ccnc(NC4CCCC4)n3)c(-c3ccc(F)cc3)nn12 [Example 44, N-Cyclopentyl-4-[2-(4-fluorophenyl)-7-(methylthio)-5-morpholin-4-ylpyrazolo[1,5-α]pyridin-3-yl]pyrimidin-2-amine]
